Measurements: US4910318A, “Tetrahydrothiopyrano(3,2-b)-indole derivatives” (Shionogi & Co., Ltd., priority 1980, dated 1990)
Where a name gives a salt, the structure may show the parent alone.

What was measured:
Carrageenin edema = assay: Anti-inflammatory activity (Carrageenin edema method); format: in vivo, JCl-Wistar female rats; conditions: Rattus norvegicus; rats, oral, 30 min before carrageenin; swelling measured 3 hours later; read-out: Anti-inflammatory activity ED30 (Test (1))
Experimental: (1) Anti-inflammatory activity (Carrageenin edema method)
A 0.9% saline solution (0.05 ml) containing 1.0% carrageenin is used as phlogistic agent. After 30 minutes JCl-Wistar female rats (180-200 g, body weight) are orally administered a test compound, the phlogistic agent is injected subcutaneously into the plantar of the feet of the rats. The volume of swelling is measured 3 hours later and the anti-edema activity is determined by calculating a ratio (%) of the edematous volume of medicated foot to that of non-medicated foot.

Acetic acid writhing = assay: Analgesic activity (Acetic acid writhing method); format: in vivo, DS male mice; conditions: Mus musculus; mice, oral, 30 min before acetic acid i.p.; writhing counted for 10 minutes; read-out: Analgesic activity ED50 (Test (2))
Experimental: (2) Analgesic activity (Acetic acid writhing method)
DS male mice (20-23 g, body weight) are treated with an intraperitoneal injection of 0.1 ml/10 g of 0.6% acetic acid 30 minutes after oral administration of a test compound. The number of writhing times for 10 minutes is counted and ED50 is calculated.

Acute toxicity = conditions: mouse, in vivo; mice, oral, mortality at the 72nd hour; read-out: Acute toxicity LD50 (Test (3))
Experimental: DS mice (20-23 g, male) are orally administered a suspension of test compound with gum arabic. The mortality at the 72nd hour is determined and the LD50 is calculated.

tetrabenazine ptosis = assay: Antidepressant activity: Anti-tetrabenazine ptosis test; format: in vivo, mice; conditions: for ED50: Mus musculus, mice, oral, 1 hour before TBZ 50 mg/kg s.c., ptosis 1 hour after TBZ
Experimental: (§1) (4) Antidepressant activity
(4)-a Anti-tetrabenazine ptosis test
Tetrabenazine (TBZ, 50 mg/kg s.c.) was administered to 5 mice for each group 1 hour after oral treatment with test compounds. […] (4=complete, 3=3/4, 2=1/2, 1=[…] closure of the eyelid, 0=normal).

[1] = system: minimal electroshock seizures with reserpine; assay: Antidepressant activity: Anti-electroshock test with reserpine; format: in vivo, mice; conditions: for ED50: Mus musculus, po, mice, p.o., 0.5 hour before reserpine 2.5 mg/kg s.c., 12 mA, 0.2 sec, 4 hours after reserpine
Experimental: as §1
(4)-b Anti-electroshock test with reserpine
Seizures were induced by shocking mice (10 per dose) via a pair of corneal electrodes with current intensity of 12 mA and a duration of 0.2 sec 4 hours after administration of reserpine.

oxotremorine hypothermia = assay: Anti-cholinergic activity (Anti-oxotremorine hypothermia test); format: in vivo, mice; conditions: for ED50: Mus musculus, mice, oral, 30 minutes before oxotremorine 0.5 mg/kg s.c.
Experimental: (5) Anti-cholinergic activity (Anti-oxotremorine hypothermia test)
Before each experiment the rectal temperature of the mice was recorded with a probe thermometer at a constant depth. The mice were divided into groups of 8 in such a way that the mean rectal temperature was the same in each group. Test compounds were administered orally 30 minutes before s.c. administration of oxotremorine (0.5 mg/kg).

[2] = system: spontaneous locomotion in mice; assay: Spontaneous locomotor increasing activity; format: in vivo; conditions: for ED50: Mus musculus, 50% increase vs control, 95% confidence limits on next line, read-out: ED50 (increasing effect on spontaneous locomotion); for ED50 / % of increase of spontaneous locomotion: oral
Experimental: (6) Spontaneous locomotor increasing activity
For each group 3 mice were used. Spontaneous locomotor activity was recorded for 15 minutes by a Varimex activity meter from 15 minutes after oral administration of a test compound.

[3] = system: bizarre behaviours of mice; assay: Hallucinogenic activity (bizarre behaviours); format: in vivo; conditions: FIGS. 1 and 2
Experimental: (8) Hallucinogenic activity
Each of the five mice in each group was confined n a box for 15 minutes to let it adapt to its surroundings. The mouse was kept on a black disc of 74 cm in diameter for 2 minutes from 5 and 15 minutes after administration of a test compound. The number of bizarre behaviours (walking backwards, pivoting and the like) was counted.

[4] = system: spontaneous locomotion in mice; assay: Spontaneous locomotor decreasing activity; format: in vivo; conditions: for ED50: Mus musculus, 50% decrease vs control, 95% confidence limits on a following line, read-out: ED50 (decreasing effect on spontaneous locomotion); for ED50 / % of decrease of spontaneous locomotion: mice, oral
From the text: (7) Spontaneous locomotor decreasing activity
For each group 5 mice were used.

[5] = compared with imipramine, Table 2

Compound `CCN(CC)CCN(C)CC1CCSc2c1n(C)c1ccccc21` (centres unmarked) [Compound 6] has an ED30 (Carrageenin edema) of 13.4 mg/kg, an ED50 (Acetic acid writhing) of 25.3 mg/kg and an LD50 at 72 h (Acute toxicity) of 700 mg/kg.

With `CNCC1CCSc2c1n(C)c1ccccc21` (centres unmarked) [Compound 1, 4-Methylaminomethyl-5-methyl-2,3,4,5-tetrahydrothiopyrano[3,2-b]indole] the ED30 (Carrageenin edema) was 9.4 mg/kg, the ED50 (Acetic acid writhing) was 6.4 mg/kg and the LD50 at 72 h (Acute toxicity) was 400 mg/kg. The ED50 (tetrabenazine ptosis) was 24.4 mg/kg, the “anti-depressant activity (in words)” value (tetrabenazine ptosis; [5]) was “strong anti-depressant activity” and the ED50 [1] was 4.3 mg/kg. For the same compound, the “anti-depressant activity (in words)” value [1, 5] was “strong anti-depressant activity”, the ED50 (oxotremorine hypothermia) was > 50 mg/kg and the “anti-cholinergic activity (in words)” value (oxotremorine hypothermia; Table 2) was “no anti-cholinergic acitivity”. For the same compound, the ED50 ([2]; mice) was 5.6 mg/kg, the “duration of spontaneous locomotion increasing activity” value ([2]; continuous/successive administration) was “more than 24 hours” and the “effect on spontaneous locomotion (in words)” value ([2]; mice, Table 3) was “moderately increases spontaneous locomotion”. The “strength of locomotion increasing activity compared with methamphetamine (in words)” value ([2]; mice, Table 3) was “does not have so strong increasing activity as methamphethamine”, the “% of increase of spontaneous locomotion” value ([2]; mice, 5 mg/kg) was 54.3% and the “% of increase of spontaneous locomotion” value ([2]; mice, 10 mg/kg) was 91.4%. The “% of increase of spontaneous locomotion” value ([2]; mice, 20 mg/kg) was 123.0% and the hallucinogenic activity [3] was “no hallucinogenic activity”.

`CN(C)CCCN1c2ccccc2CCc2ccccc21` [Imipramine] showed an ED50 (tetrabenazine ptosis) of 6 mg/kg, an ED50 [1] of 102 mg/kg and an ED50 (oxotremorine hypothermia) of 4.5 mg/kg. For the same compound, the ED50 [4] was 56 mg/kg, the “% of decrease of spontaneous locomotion” value ([4]; 25 mg/kg) was 19.1% and the “% of decrease of spontaneous locomotion” value ([4]; 50 mg/kg) was 56.0%. The “% of decrease of spontaneous locomotion” value ([4]; 100 mg/kg) was 62.9%.

`CCn1c2c(c3ccccc31)SCCC2CNC` (centres unmarked) [Compound 2, 4-methylaminomethyl-5-ethyl-2,3,4,5-tetrahydrothiopyrano[3,2-b]indole] gave an ED30 (Carrageenin edema) of 9.4 mg/kg, an ED50 (Acetic acid writhing) of 13.3 mg/kg and an LD50 at 72 h (Acute toxicity) of 800 mg/kg.

In the case of `CNCC1CCSc2[nH]c3ccccc3c21` (centres unmarked) [Ref., 4methylaminomethyl-2,3,4,9-tetrahydro-thiopyrano [3,2b]indole HCl salt, reference compound], the ED50 (Acetic acid writhing) is reported as 4.2 mg/kg, the LD50 at 72 h (Acute toxicity) is reported as 330 mg/kg and the ED50 (tetrabenazine ptosis) is reported as > 50 mg/kg. The ED50 [1] was 8.4 mg/kg, the ED50 (oxotremorine hypothermia) was > 50 mg/kg and the ED50 [4] was 43 mg/kg. For the same compound, the “effect on spontaneous locomotion (in words)” value ([4]; Table 4) was “decreases the activity”, the “% of decrease of spontaneous locomotion” value ([4]; 25 mg/kg) was 7.4% and the “% of decrease of spontaneous locomotion” value ([4]; 50 mg/kg) was 75.3%. For the same compound, the “% of decrease of spontaneous locomotion” value ([4]; 100 mg/kg) was 97.2% and the hallucinogenic activity [3] was “does”.

For `Cc1c(N(C)C)c(=O)n(-c2ccccc2)n1C` [Aminopyrine, reference compound], the ED30 (Carrageenin edema) was 24 mg/kg, the ED50 (Acetic acid writhing) was 58 mg/kg and the LD50 at 72 h (Acute toxicity) was 800 mg/kg.

Work on `C=CCn1c2c(c3ccccc31)SCCC2CNC` (centres unmarked) [Compound 5] yielded an ED30 (Carrageenin edema) of 17.5 mg/kg, an ED50 (Acetic acid writhing) of 11.3 mg/kg and an LD50 at 72 h (Acute toxicity) of 700 mg/kg.

Work on `CN(C)CC1CCSc2c1n(C)c1ccccc21` (centres unmarked) [Compound 3, 4-Dimethylaminomethyl-5-methyl-2,3,4,5-tetrahydrothiopyrano[3,2-b]indole] yielded an ED30 (Carrageenin edema) of 28.3 mg/kg, an ED50 (Acetic acid writhing) of 17.8 mg/kg and an LD50 at 72 h (Acute toxicity) of 400 mg/kg.

With `CN[C@@H](C)Cc1ccccc1` [Methamphetamine, reference compound] the ED50 ([2]; mice) was 0.6 mg/kg, the “% of increase of spontaneous locomotion” value ([2]; mice, 0.5 mg/kg) was 45.4% and the “% of increase of spontaneous locomotion” value ([2]; mice, 1 mg/kg) was 62.5%. For the same compound, the “% of increase of spontaneous locomotion” value ([2]; mice, 2 mg/kg) was 137.8%.

For `CNCC1CC[S+]([O-])c2c1n(C)c1ccccc21` (centres unmarked) [Compound 4, 4-Methylaminomethyl-5-methyl-2,3,4,5-tetrahydrothiopyrano[3,2-b]indole 1-oxide], the ED50 (Acetic acid writhing) was 49 mg/kg and the LD50 at 72 h (Acute toxicity) was > 1000 mg/kg.
